# Laboratory results published in patent US8686178B2, “Derivative of 18β-glycyrrhetinic acid apt to suppress cancer cells” (Kaohsiung Medical University, priority 2011, dated 2014).
# What was measured:
# NTUB1 cells [1] = test: Trial (D): production of reactive oxygen species by flow cytometry (DCF); format: cell-based, human; details: 24 hours
# Method: In trial (D), production of reactive oxygen species (ROS) is analyzed by flow cytometry, since the levels of ROS play an important role in apoptosis.
# Referring to TABLE 4, the NTUB1 cells at a density of 8×10^5 cells/ml are prepared and assigned into 5 groups, including D1 to D5, to incubate in various medium for 24 hours. Next, 10 μM of 2,7-dichlorodihydrofluorescein diacetate (H2DCFHDA; Molecular Probes, Eugene, Oreg.) is added to the NTUB1 cells of each group 30 minutes prior than harvest, followed by collecting the NTUB1 cells of each group respectively and washing with PBS buffer. With such arrangement, the 2,7-dichlorodihydrofluorescein diacetate will penetrate into cells, interact with esterase, and degrade to 2,7-dichlorofluorescein (DCF) having green fluorescein, which can be determined by flow cytometer. In trial (D), green fluorescence of intracellular DCF in each group are analyzed immediately by FACScan flow cytometer (Becton Dickinson) at a wavelength of 525 nm.
# NTUB1 cells [2] = test: Trial (E): cell cycle progression by flow cytometry (propidium iodide); format: cell-based, human; design: Sub-G1 / G1: unit not given here; details: 24 hours, NTUB1
# Method: In order to determine a relationship between the derivatives of 18β-glycyrrhetinic acid of the present invention and cell cycle arrest, trial (E) is carried out by analyzing cell cycle progression by flow cytometry. […] After that, cell cycle progression of each group is determined respectively by incubating with 50 μg/mL propidium iodide (Sigma, Co) and 50 μg/mL RNase A (Sigma, Co) in PBS at room temperature for 30 min, and analyzing by FACScan flow cytometer and Cell Quest sofeware.
# p-p53 (Ser15) = test: Trial (G): expression of p53 / p-p53 by Western blot; format: cell-based, human; details: NAC with 50 μM 25, 24 hours, NTUB1
# Method: In trial (G), expression of p53 is monitored via Western blot analysis in accordance with a journal article published by Son et al., at 2010 in Toxicol. Appl. Pharmacol., in which overproduction ROS induced p53 suppression is observed.
# Referring to TABLE 7, the NTUB1 cells at a density of 8×10^5 cells/ml are prepared and assigned into 9 groups, including G1-1 to G1-5 and G2-1 to G2-4, to incubate in various medium for 24 hours, followed by harvesting in trypsinization, resuspending in PBS till at a suitable density and collecting the NTUB1 cells of each group respectively.
# Next, the NTUB1 cells of each group are further diluted with equal volume of 2× sample buffer, boiled for 10 minutes twice to denature protein therein, and analyzed by SDS-PAGE. After that, proteins on SDS-PAGE datum are transferred to nitrocellulose membranes (Millipore, Billerica, Mass., USA) using a semi-dry blotter, followed by blocking with 5% (w/v) skimmed milk in TBST buffer (100 mM Tris-HCl (pH 7.5), 150 mM NaCl and 0.1% Tween-20), incubating with specific antibodies [including antibodies specific for b-acctin (NB600-501), p-p53 (Ser15) (9284) and p53 (DO1)]. at 4° C. overnight, washing with TBST buffer again and incubated with secondary antibody at room temperature. Finally, western data of each group are visualized on Fuji SuperRX film. […]
# [3] = test system: human bladder cancer cell line NTUB1; test: Trial (A): cytotoxic effect, IC50 by median-effect analysis; format: cell-based; details: NTUB1 cells; for cytotoxic effect against cancer cell: with reference to TABLE 2; for IC50: mean ± SD
# Excerpt: (§1) For the sake of proving therapeutic effects of the derivatives of 18β-glycyrrhetinic acid of the present invention, including 10, 11, 13-17 and 21-25, in treating of cancer, human bladder cancer cell line NTUB1, human prostate cancer cell line PC3 cataloged as CRL-1435 (reference to J. Formosan Med. Assoc. 1992; 91:608-13), and immortalized normal human urothelial cells SV-HUC1 cataloged as CRL-9520 are purchased from American Type Culture Collection (ATCC; Rockville, USA) and maintained in a culturing medium respectively till at a preferable density to carry out a serial of trials (comprising trial A to G) for evaluating cytotoxicities of the derivatives of 18β-glycyrrhetinic acid against cancer cells, and mechanisms thereof.
# In the present invention, the NTUB1 and the PC3 is but not limit to be maintained in RPMI 1640 medium supplemented 10% fetal bovine serum (FBS), 100 unit/mL penicillin-G, 100 μg/mL streptomycin, and 2 mM L-glutamine, yet the SV-HUC1 is maintained in F12 medium supplemented with 10% fetal bovine serum (FBS), 100 unit/mL penicillin-G, 100 μg/mL streptomycin, and 2 mM L-glutamine, culturing at 37° C. in a humidified atmosphere containing 5% CO2 till at a density of 70% per well, followed by repeatedly suspending cells in each well with an ethylene diamine tetra-acetic acid buffer (EDTA buffer; Merck) and counting cell numbers.
# In the present invention, the IC50 values of each group are presented as mean±standard deviation (SD).
# NTUB1 = test: Trial (B): MTT cytotoxicity assay, 72 hours; format: cell-based, human; details: 0-50 μM
# Excerpt: as §1, with “thereof. […]” for “thereof.”
# (§2) In trial (B), the cell lines of NTUB1, PC3, and SV-HUC1 are prepared in 96-well plates and co-incubated with the compounds 21, 23 or 25 in various concentrations of 0, 0.3, 1, 3, 5, 10, 30 and 50 μM, to analyze cytotoxic effects against either cancer cell or normal cells via a modified 3-[4,5-dimethylthiazol-2-yl]-2,5-diphenyltetrazolium bromide (MTT, Sigma Chemical Co.) assay. […] At co-incubation, 50 μL of MTT (2 mg/mL in PB) is added to each well to react for 3 hours, followed by centrifugating the 96-well plates at 1000 g for 10 min to remove supernatant, adding 150 μL DMSO in each well of the 96-well plates, and determining viability rates of the NTUB1, PC3, and SV-HUC1 cells separately by an absorbance spectrometry at 540 nm with a MRX (DYNEXCO) microplate reader.
# [4] = test system: human prostate cancer cell line PC3; test: Trial (B): MTT cytotoxicity assay, 72 hours; format: cell-based; details: 0-50 μM
# Excerpt: as §1, with “thereof. […]” for “thereof.”
# as §2
# [5] = test system: immortalized normal human urothelial cells SV-HUC1; test: Trial (B): MTT assay on normal cells, 72 hours; format: cell-based; details: 0-50 μM
# Excerpt: as §1, with “thereof. […]” for “thereof.”
# as §2
Compound,cytotoxic effect against cancer cell [3],IC50 [3],"cytotoxic effect (survival ratio, FIGS. 4-6) (NTUB1)","cytotoxic effect (survival ratio, FIGS. 4-6) [4]","effect on growth of normal cells (survival ratio, FIGS. 4-6) [5]",also measured
"CC(=O)N[C@@H](CS)C(=O)O [NAC, reference compound]",–,–,–,–,–,"ROS (%) (NTUB1 cells [1]; 1 mM): 26.1%; G1 (NTUB1 cells [2]; 1 mM): 44.41; S (NTUB1 cells [2]; 1 mM): 29.18; Sub-G1 (NTUB1 cells [2]; 1 mM): 2.66; G2/M (NTUB1 cells [2]): 20.18; effect on p53 phosphorylation stimulated by 25 (Western blot, FIG. 10) (p-p53 (Ser15)): prevents p53 phosphorylation that stimulated by 25"
"C=C(C)[C@@H]1CC[C@]2(C)[C@H](C(=O)C=C3[C@@H]4C[C@@](C)(C(=O)NC(C)C)CC[C@]4(C)CC[C@]32C)[C@@]1(C)CCC(=O)OCC [Compound 21, 30-isopropyl carbamoyl-11-oxo-18β-3,4-seco-olean-4(23),12-dien 3-ethyl ester]",significantly suppress the growth of cancer cells with a lower concentrate,19.4 ± 19.2 µM,"cytotoxic effects against to the cancer cells in a dose-dependent manner, particularly in against to NTUB1 cell",cytotoxic effects against to the cancer cells in a dose-dependent manner,enhance the growth of SV-HUC1 cells,–
C=C(C)[C@@H]1CC[C@]2(C)[C@H](C(=O)C=C3[C@@H]4C[C@@](C)(C(=O)NC(C)C)CC[C@]4(C)CC[C@]32C)[C@@]1(C)CCC(=O)NCC [Compound 23],significantly suppress the growth of cancer cells with a lower concentrate,12.8 ± 2.1 µM,"cytotoxic effects against to the cancer cells in a dose-dependent manner, particularly in against to NTUB1 cell",cytotoxic effects against to the cancer cells in a dose-dependent manner,enhance the growth of SV-HUC1 cells,–
"N.N.[Cl][Pt][Cl] [cisplatin, cis-diamminedichloroplatinum II, reference compound]",–,3.27 ± 0.1 µM,–,–,–,ROS (%) (NTUB1 cells [1]; 20 μM): 63.1%; G1 (NTUB1 cells [2]; 20 μM): 60.91; G2/M (NTUB1 cells [2]; 20 μM): 6.65; S (NTUB1 cells [2]; 20 μM): 22.09; Sub-G1 (NTUB1 cells [2]; 20 μM): 10.35
